“Also recorded” adds a separate entry of the source. Where a SMILES comes first, the peptide text is derived from it.
Legend:
[1] = system: GLP-1R; assay: FACS analysis of GFP-positive cells (CRE-GFP reporter), GLP-1R-expressing HEK293; format: cell-based; conditions: HEK293 cells transfected with GLP-1R
Protocol: Cells were harvested by trypsin treatment and centrifuged at 500g for 5 min. The pellet was resuspended in ice-cold PBS and centrifuged again. The pellet was then resuspended at a concentration of 4 × 10^6 cells/mL in the PBS sorting buffer containing 100 Kunitz DNase I/mL, 10 μg/mL propidium iodide (Sigma), and 2% FBS. The sorting solution was also supplemented with either 10 μM forskolin, 100 μM 5,6-dichlorobenzimidazole riboside (DRB, Sigma), 10 μM forskolin (Sigma), and 100 μM DRB or DMSO, as a control. The cells were then sent through a 40 μm filter to remove large clumps and loaded into either a FACScan Flow Cytometer (BD Bioscience) for cell analysis or a FACSVantage SE cell sorter (BD Bioscience) for cell sorting. The cells with positive propidium iodide staining, i.e., the dead cells, were first eliminated from the analysis or sorting pool. For cell sorting, the desired population, either the EGFP brightest or least bright ones according to the purpose of experiments (see Results), was sorted into either 15 mL conical tubes or 96-well plates, which contained complete DMEM culture media.

[2] = system: GLP-1R; assay: cAMP assay (TR-FRET) for validating GLP-1R activating peptides from screening; format: cell-based; conditions: cells stably expressing GLP-1R and CRE, transfected with peptide-expressing construct, 24 h + 24 h; TR-FRET cAMP-Gs Dynamic kit
Text: We next screened the GPI-AP-peptide library using FACS to discover novel GLP-1R activators. FACS is a widely used flow cytometric technique that isolates specific cell populations from mixtures of different cells. Briefly, when a potential peptide activator stimulates GLP-1R, there is an intracellular boost of cAMP levels. Subsequently, cAMP activates CREB, which binds to CRE and triggers transcription of the GFP/luciferase reporter gene. […] We chose the top three activating peptides found throughout the screening for further validation testing (PepA3, Pep1, and Pep2).
Figure 3 Discovery of novel agonists of the GLP-1R using our screening platform. (A) Fluorescence-activated cell analysis and sorting of HEK293 cells transfected with the GLP-1R. […] (B) Confocal microscopy of HEK293 cells transfected with the GLP-1R treated with different peptides. […] The increase in the cyclic AMP concentration was quantified to evaluate the peptides’ activities.
The stable cell lines were prepared by the infection of HEK293T cells with the pLJM1 vector with GLP-1R and CRE. The cells were selected with the hygromycin antibiotic. […] The culture medium was changed, and cells were grown for 24 h. The cAMP cell content was estimated using a homogeneous time-resolved fluorescence resonance energy transfer (TR-FRET) immunoassay using a cAMP-Gs Dynamic kit (PerkinElmer) following manufacturer’s protocol.

[3] = system: CCR2-mCherry; assay: FRET colocalization of MCP1-GFP with CCR2-mCherry at the cell surface; format: cell-based; conditions: MCP1-GFP and CCR2-mCherry; transient coexpression in HEK293 cells; FRET assays
Protocol: To validate our screening platform, we chose the interaction between the chemokine MCP1 peptide and C–C chemokine receptor 2 (CCR2).[10],[11] We designed a structure that encodes a fusion protein to display the MCP1 peptide on the cell surface. The Ly6/neurotoxin (LYNX1) signal and GPI-AP sequences were present in this fusion protein’s N- and C-terminal regions, respectively. A Flag tag or GFP sequence was added upstream of the GPI-AP sequence. We also investigated the effect of various linkers between MCP1 and FLAG, as well as the FLAG and GPI-AP sequences (Figure 2A). All of the different MCP1-GFP constructions and CCR2 receptor fused with the mCherry fluorescent protein (CCR2-mCherry) were cloned into the pLJM1 nGFP lentiviral vector to evaluate their expression in human embryonic kidney 293 (HEK293) cells.
Figure 2 Validation of the screening platform using the MCP1 peptide. (A) Genetic construction that encodes the fusion protein used to display library peptides on the cell surface. (B) Cell surface localization of the MCP1-GFP peptide and CCR2-mCherry receptor. MCP1-GFP peptide and CCR2-mCherry were localized at the cell surface when expressed separately. […]
MCP1-GFP and CCR2-mCherry were localized at the cell surface when expressed separately (Figure 2B). […] We then evaluated the activity of the different MCP1-GFP constructions using a CRE-luciferase reporter assay. […]

[4] = system: CCR2; assay: CRE-luciferase reporter assay of MCP1 fusion constructs (platform validation); format: cell-based; conditions: HEK293T stably expressing CCR2 and Gaussia luciferase reporter, luciferase induced by 10 μM forskolin
Text: Figure 2 Validation of the screening platform using the MCP1 peptide. (A) Genetic construction that encodes the fusion protein used to display library peptides on the cell surface. (B) Cell surface localization of the MCP1-GFP peptide and CCR2-mCherry receptor. MCP1-GFP peptide and CCR2-mCherry were localized at the cell surface when expressed separately. (C) MCP1-GFP peptide colocalized with CCR2-mCherry at the cell surface and distinct subcellular sites upon transient coexpression in HEK293T cells. (D) Evaluating the activity of different fusion proteins of the MCP1 peptide using a CRE-luciferase reporter assay. […] The activation of the different peptide variants was recorded through the inhibition of the luciferase expression induced by 10 μM forskolin.
MCP1-GFP and CCR2-mCherry were localized at the cell surface when expressed separately (Figure 2B). […] We then evaluated the activity of the different MCP1-GFP constructions using a CRE-luciferase reporter assay. As a negative control, we used a construction where the MCP1 peptide is not fused to the signal or GPI-AP sequences.
HEK293T cells stably expressing CCR2 and the reporter Gaussia Luciferase construct were trypsinized from subconfluent culture and seeded in a 96-well plate at a density of 5000 cells per well. […] Immediately after adding the reagent, samples were read using a luminometer with a 480 nm filter.

[5] = molecular target: T1, hGLP1R (Homo sapiens, UniProt P43220); assay: HTRF cAMP assay in GLP-1R-expressing HEK293 cells; format: cell-based; conditions: at higher concentrations, HEK293 stably expressing GLP-1R, 4 h at 37 °C
T1 construct: expressed in transfected cells
Protocol: cAMP accumulation was measured using a HTRF cAMP-Gs Dynamic kit (Cisbio Bioassays, 62AM4PEB) according to the manufacturer’s instructions. Briefly, HEK293 cells expressing hGLP1R were trypsinized from subconfluent culture and seeded in a 96-well low-volume plate at a density of 2000 cells per well. […] After 4 h of incubation at 37 °C, cAMP d2 reagent and cAMP Eu-Cryptate antibodies were added to each well. After incubation at room temperature for 30 min in the dark, the plate was read using a Synergy 2 plate reader (BioTek) with excitation at 330 nm and emission at 620 and 665 nm. Data were used to calculate the EC50 value by fitting it to a nonlinear sigmoidal curve using GraphPad Prism 8.

[6] = Circular dichroism secondary structure determination; conditions: acetonitrile:PBS (1:2), 20 μM peptide, 0.1 cm cuvette, 10 accumulations; for Others (secondary structure content) / α-helix content / β-sheet content: Table S2, estimated by BeStSel from CD; for α-helical structure content: circular dichroism
Protocol: We next performed circular dichroism (CD) analysis of the peptides in solution to determine the peptides’ secondary structure.
Peptide secondary structure determination was carried out using a Jasco J-720 spectropolarimeter (Table S2). Lyophilized peptide powders were dissolved in acetonitrile:PBS (1:2), and CD spectra were read immediately. […] Samples were read using a 0.1 cm cuvette path length with 10 accumulations per run and 50 nm/min scanning speed. All spectra were background subtracted.

[7] = molecular target: glucagon-like peptide-1 receptor (human) (UniProt P43220)
Sequence of glucagon-like peptide-1 receptor (human) (P43220 24-463): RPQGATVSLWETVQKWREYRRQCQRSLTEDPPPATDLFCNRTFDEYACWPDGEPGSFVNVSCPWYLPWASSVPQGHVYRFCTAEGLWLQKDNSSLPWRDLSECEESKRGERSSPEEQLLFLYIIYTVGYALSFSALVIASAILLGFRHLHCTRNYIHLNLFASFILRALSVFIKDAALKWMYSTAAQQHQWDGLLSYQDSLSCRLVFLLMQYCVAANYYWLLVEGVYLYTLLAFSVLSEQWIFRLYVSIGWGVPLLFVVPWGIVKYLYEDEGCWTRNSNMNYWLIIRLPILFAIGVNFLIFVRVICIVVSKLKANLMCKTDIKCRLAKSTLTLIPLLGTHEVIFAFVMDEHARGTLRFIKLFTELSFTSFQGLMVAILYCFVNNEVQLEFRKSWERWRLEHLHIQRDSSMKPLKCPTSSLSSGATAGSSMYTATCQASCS

T1 sequence (P43220 24-463): as above

## C=C[C@@]1(C)CC(=O)[C@]2(O)[C@@]3(C)[C@@H](O)CCC(C)(C)[C@@H]3[C@H](O)[C@H](OC(C)=O)[C@@]2(C)O1 [forskolin]
[1]
  GFP-positive cells versus no treatment: more GFP-positive cells

## SGLAGHSVFLVPGLAAHPGSHSDQPPGVPSRR [Pep2]
[2]
  stimulation of GLP-1R-expressing cells and intracellular cAMP increase: Only PepA3 stimulated the GLP-1R-expressing HEK293 cells

## MCP1: chemokine MCP1 peptide displayed on the cell surface as fusion with LYNX1 signal and GPI-AP sequences
[3]
  colocalization with CCR2 at the cell surface: colocalization of MCP1 and CCR2 at the cell surface
[4]; MCP1 fused to the signal sequence and GPI-AP (all constructions), 6 h after transfection
  activation of CCR2 receptor (inhibition of forskolin-induced luciferase expression): activated the receptor in all the constructions where the peptide was fused to the signal sequence and GPI-AP; also recorded: activated the CCR2 receptor in all the constructions where the peptide was fused to the signal and GPI-AP sequences
[4]; negative control: MCP1 not fused to the signal or GPI-AP sequences
  activation of CCR2 receptor (inhibition of forskolin-induced luciferase expression): did not activate the CCR2 receptor when the peptide was not fused to the signal sequence and GPI-AP

## CC[C@H](C)[C@H](NC(=O)[C@H](C)NC(=O)[C@H](CC(=O)O)NC(=O)[C@H](Cc1ccccc1)NC(=O)[C@H](C)NC(=O)[C@@H]1CCCN1C(=O)[C@H](CCC(N)=O)NC(=O)[C@H](CS)NC(=O)[C@@H](NC(=O)[C@H](CCC(=O)O)NC(=O)[C@H](CCCNC(=N)N)NC(=O)[C@H](CC(C)C)NC(=O)CNC(=O)[C@H](CCC(=O)O)NC(=O)[C@H](CS)NC(=O)[C@@H](NC(=O)[C@@H](N)Cc1c[nH]cn1)[C@@H](C)CC)C(C)C)C(=O)N[C@@H](CC(=O)O)C(=O)N[C@@H](CCSC)C(=O)N[C@@H](C)C(=O)N[C@@H](Cc1c[nH]c2ccccc12)C(=O)N1CCC[C@H]1C(=O)N[C@@H](Cc1ccc(O)cc1)C(=O)N[C@@H](Cc1ccccc1)C(=O)N[C@@H](CC(C)C)C(=O)N[C@@H](CC(=O)O)C(=O)N[C@@H](CS)C(=O)N[C@@H](Cc1c[nH]cn1)C(=O)N[C@@H](CCCNC(=N)N)C(=O)N[C@@H](Cc1ccc(O)cc1)C(=O)N[C@@H](Cc1ccccc1)C(=O)N[C@H](C(=O)N[C@@H](CCCNC(=N)N)C(=O)N[C@@H](CCC(=O)O)C(=O)O)[C@@H](C)O [PepA] (H-HICEGLREVCQPAFDAIDMAWPYFLDCHRYFTRE-OH; N-terminus and C-terminus assumed)
[5]
  efficacy for GLP-1R activation relative to GLP-1: able to stimulate GLP-1R activation to a level comparable to that of GLP-1
[6]
  Others (secondary structure content): 45.4%
  α-helix content: 46.1%
  β-sheet content: 8.5%
  α-helical structure content: 30.1–46.1%

## CC[C@H](C)[C@H](N)C(=O)N[C@@H](CS)C(=O)N[C@@H](CCC(=O)O)C(=O)NCC(=O)N[C@@H](CC(C)C)C(=O)N[C@@H](CCCNC(=N)N)C(=O)N[C@@H](CCC(=O)O)C(=O)N[C@H](C(=O)N[C@@H](CS)C(=O)N[C@@H](CCC(N)=O)C(=O)N1CCC[C@H]1C(=O)N[C@@H](C)C(=O)N[C@@H](Cc1ccccc1)C(=O)N[C@@H](CC(=O)O)C(=O)N[C@@H](C)C(=O)N[C@H](C(=O)N[C@@H](CC(=O)O)C(=O)N[C@@H](CCSC)C(=O)N[C@@H](C)C(=O)N[C@@H](Cc1c[nH]c2ccccc12)C(=O)N1CCC[C@H]1C(=O)N[C@@H](Cc1ccc(O)cc1)C(=O)N[C@@H](Cc1ccccc1)C(=O)N[C@@H](CC(C)C)C(=O)N[C@@H](CC(=O)O)C(=O)N[C@@H](CS)C(=O)N[C@@H](Cc1c[nH]cn1)C(=O)N[C@@H](CCCNC(=N)N)C(=O)N[C@@H](Cc1ccc(O)cc1)C(=O)N[C@@H](Cc1ccccc1)C(=O)N[C@H](C(=O)N[C@@H](CCCNC(=N)N)C(=O)N[C@@H](CCC(=O)O)C(=O)O)[C@@H](C)O)[C@@H](C)CC)C(C)C [PepA2] (H-ICEGLREVCQPAFDAIDMAWPYFLDCHRYFTRE-OH; N-terminus and C-terminus assumed)
[5]
  efficacy for GLP-1R activation relative to GLP-1: able to stimulate GLP-1R activation to a level comparable to that of GLP-1
[6]
  Others (secondary structure content): 56.5%
  α-helix content: 30.1%
  β-sheet content: 13.3%
  α-helical structure content: 30.1–46.1%

## glucagon-like peptide-1 (ligand)
[7]
  EC50 of the decrease of the FRET signal in the HTRF cAMP assay, GLP-1R expressing HEK293 cells: 0.54 nM

## ELAELVPRLFRVASKTHRDLLEVNLQNGILFV [Pep1]
[2]
  stimulation of GLP-1R-expressing cells and intracellular cAMP increase: Only PepA3 stimulated the GLP-1R-expressing HEK293 cells

## CC[C@H](C)[C@H](NC(=O)[C@H](C)NC(=O)[C@H](CC(=O)O)NC(=O)[C@H](Cc1ccccc1)NC(=O)[C@H](C)NC(=O)[C@@H]1CCCN1C(=O)[C@H](CCC(N)=O)NC(=O)[C@H](CS)NC(=O)[C@@H](NC(=O)[C@H](CCC(=O)O)NC(=O)[C@H](CCCNC(=N)N)NC(=O)[C@H](CC(C)C)NC(=O)CNC(=O)[C@H](CCC(=O)O)NC(=O)[C@@H](N)CS)C(C)C)C(=O)N[C@@H](CC(=O)O)C(=O)N[C@@H](CCSC)C(=O)N[C@@H](C)C(=O)N[C@@H](Cc1c[nH]c2ccccc12)C(=O)N1CCC[C@H]1C(=O)N[C@@H](Cc1ccc(O)cc1)C(=O)N[C@@H](Cc1ccccc1)C(=O)N[C@@H](CC(C)C)C(=O)N[C@@H](CC(=O)O)C(=O)N[C@@H](CS)C(=O)N[C@@H](Cc1c[nH]cn1)C(=O)N[C@@H](CCCNC(=N)N)C(=O)N[C@@H](Cc1ccc(O)cc1)C(=O)N[C@@H](Cc1ccccc1)C(=O)N[C@H](C(=O)N[C@@H](CCCNC(=N)N)C(=O)N[C@@H](CCC(=O)O)C(=O)O)[C@@H](C)O [PepA3] (H-CEGLREVCQPAFDAIDMAWPYFLDCHRYFTRE-OH; N-terminus and C-terminus assumed)
[2]
  stimulation of GLP-1R-expressing cells and intracellular cAMP increase: stimulated the GLP-1R-expressing HEK293 cells and increased the cAMP intracellular levels
[5]
  efficacy for GLP-1R activation relative to GLP-1: able to stimulate GLP-1R activation to a level comparable to that of GLP-1
[6]
  Others (secondary structure content): 46.7%
  α-helix content: 42.9%
  β-sheet content: 10.4%
  α-helical structure content: 30.1–46.1%

From publication PMC11635519, “A High-Throughput Method for Screening Peptide Activators of G-Protein-Coupled Receptors” (ACS Omega, 2024)
